Results reported in US20080096859A1, “Compositions and Methods for Treating Ophthalmic Diseases” (priority 2004, published 2008).
Counter-ions that a name gives are not always drawn.

Row | melting point [°C] | Structure (SMILES)
1 | 189 to 190 | c1ccc(CCNC[C@@H]2CCN(CCc3c[nH]c4ccc(-n5cnnc5)cc34)C2)cc1 (as salt: oxalate) (hydrate or solvate)
2 | 154 to 156 | c1ccc(CNC[C@@H]2CCN(CCc3c[nH]c4ccc(Cn5cncn5)cc34)C2)cc1 (as salt: oxalate)
